Here are results for twelve molecules from patent US12539292B2, “BRM targeting compounds and associated methods of use” (Arvinas Operations, Inc., priority 2018, dated 2026).

SMILES strings stand for the structures. Read-outs that look alike come from different tables or passages of the source.

This experiment deals with T1, BRM (Homo sapiens, UniProt P51531).
T1 construct: In-Cell Western Screen of BRM Degradation in SW1573 Cells; endogenous in cells; host or cells: SW1573
Kind of experiment: In-cell Western screen of BRM degradation in SW1573 cells (Dmax and DC50). The experiment is classed as cell-based. In short, it runs like this: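 Overnight compound treatment (18-20 h, final DMSO 0.1%) of SW1573 cells in DMEM with 10% FBS precedes fixation and in-cell Western staining with 800/680 nm dye-labelled secondaries. Plate images give DC50 and maximal degradation.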

Setting [1] is: SW1573, % degraded, when tested at the top concentration of between 0.3 and 10 μM, read-out: BRM Dmax (%).
[2] abbreviates: BRM degradation, read-out: BRM DC50.
The mark [3] stands for this setting: BRM degradation, SW1573 cells, read-out: DC50.
[4] abbreviates: BRM degradation, SW1573 cells, when tested at the top concentration of between 0.3 and 10 μM, read-out: Dmax (%) (% degraded).
Where [5] appears, read: BRM degradation, SW1573 cells, tested at the top concentration of between 0.3 and 10 μM, read-out: Dmax (%) (% degraded).

T1 sequence (P51531 whole entry): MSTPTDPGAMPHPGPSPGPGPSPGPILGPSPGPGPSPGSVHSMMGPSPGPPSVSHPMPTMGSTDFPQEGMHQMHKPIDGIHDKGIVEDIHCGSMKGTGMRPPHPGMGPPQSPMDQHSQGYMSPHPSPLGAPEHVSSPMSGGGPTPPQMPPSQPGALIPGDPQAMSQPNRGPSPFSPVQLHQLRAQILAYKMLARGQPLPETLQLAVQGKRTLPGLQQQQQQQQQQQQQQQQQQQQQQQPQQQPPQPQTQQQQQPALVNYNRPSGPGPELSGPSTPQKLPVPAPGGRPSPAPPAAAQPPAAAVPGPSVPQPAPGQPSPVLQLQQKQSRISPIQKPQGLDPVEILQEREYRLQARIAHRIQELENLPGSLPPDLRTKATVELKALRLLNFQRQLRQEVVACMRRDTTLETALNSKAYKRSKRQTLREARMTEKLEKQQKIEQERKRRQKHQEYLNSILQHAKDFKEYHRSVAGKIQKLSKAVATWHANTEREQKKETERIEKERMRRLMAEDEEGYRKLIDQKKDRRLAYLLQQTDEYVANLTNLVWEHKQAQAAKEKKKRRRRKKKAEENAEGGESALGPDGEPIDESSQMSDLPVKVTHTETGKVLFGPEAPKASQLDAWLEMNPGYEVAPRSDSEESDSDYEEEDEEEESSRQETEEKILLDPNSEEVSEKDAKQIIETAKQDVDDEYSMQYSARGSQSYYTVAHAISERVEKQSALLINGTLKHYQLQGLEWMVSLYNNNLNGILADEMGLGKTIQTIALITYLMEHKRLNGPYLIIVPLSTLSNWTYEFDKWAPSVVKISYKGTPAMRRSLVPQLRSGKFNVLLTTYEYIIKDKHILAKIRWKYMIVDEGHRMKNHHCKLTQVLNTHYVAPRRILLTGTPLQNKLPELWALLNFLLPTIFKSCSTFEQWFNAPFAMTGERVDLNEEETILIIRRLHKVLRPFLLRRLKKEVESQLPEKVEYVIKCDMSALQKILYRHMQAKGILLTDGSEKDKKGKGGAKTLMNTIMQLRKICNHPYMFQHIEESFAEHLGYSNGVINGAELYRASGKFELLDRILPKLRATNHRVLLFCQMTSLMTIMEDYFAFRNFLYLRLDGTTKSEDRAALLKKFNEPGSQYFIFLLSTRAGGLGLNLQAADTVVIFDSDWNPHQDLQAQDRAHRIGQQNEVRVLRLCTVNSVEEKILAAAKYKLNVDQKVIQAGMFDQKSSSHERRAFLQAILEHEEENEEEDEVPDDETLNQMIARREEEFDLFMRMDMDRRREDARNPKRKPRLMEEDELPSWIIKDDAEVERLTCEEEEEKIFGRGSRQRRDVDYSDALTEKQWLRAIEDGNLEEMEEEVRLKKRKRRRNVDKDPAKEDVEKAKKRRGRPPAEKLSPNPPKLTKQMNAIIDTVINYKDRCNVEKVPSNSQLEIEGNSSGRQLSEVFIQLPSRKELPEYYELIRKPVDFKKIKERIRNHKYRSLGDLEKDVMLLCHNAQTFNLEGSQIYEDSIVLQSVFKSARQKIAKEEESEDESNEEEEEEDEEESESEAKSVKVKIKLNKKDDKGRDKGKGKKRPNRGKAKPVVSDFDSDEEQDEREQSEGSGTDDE

`Cc1ncsc1-c1ccc([C@H](C)NC(=O)[C@@H]2C[C@@H](O)CN2C(=O)[C@@H](c2cc(OCC[C@H]3CC[C@H](O[C@H]4C[C@H](Oc5cc(N6C7CCC6CN(c6cc(-c8ccccc8O)nnc6N)C7)ccn5)C4)CC3)no2)C(C)C)cn1` [compound 486, (2S,4R)-1-((2R)-2-(3-(2-((1R,4R)-4-((1r,3R)-3-((4-(3-(3-amino-6-(2-hydroxyphenyl)pyridazin-4-yl)-3,8-diazabicyclo[3.2.1]octan-8-yl)pyridin-2-yl)oxy)cyclobutoxy)cyclohexyl)ethoxy)isoxazol-5-yl)-3-methylbutanoyl)-4-hydroxy-N-((S)-1-(6-(4-methylthiazol-5-yl)pyridin-3-yl)ethyl)pyrrolidine-2-carboxamide]: the greatest degradation seen (Dmax) under setting [1] was > 75%. Under “target protein degradation, read-out: BRM DC50”, the half-maximal degradation concentration (DC50) was < 2.5 nM.

For `Cc1ncsc1-c1ccc([C@H](C)NC(=O)[C@@H]2C[C@@H](O)CN2C(=O)[C@@H](c2cc(N3CCN(C[C@H]4C[C@H](Oc5cc(N6C7CCC6CN(c6cc(-c8ccccc8O)nnc6N)C7)ccn5)C4)CC3)no2)C(C)C)cc1` [compound 499, (2S,4R)-1-((2R)-2-(3-(4-(((1r,3R)-3-((4-(3-(3-amino-6-(2-hydroxyphenyl)pyridazin-4-yl)-3,8-diazabicyclo[3.2.1]octan-8-yl)pyridin-2-yl)oxy)cyclobutyl)methyl)piperazin-1-yl)isoxazol-5-yl)-3-methylbutanoyl)-4-hydroxy-N-((S)-1-(4-(4-methylthiazol-5-yl)phenyl)ethyl)pyrrolidine-2-carboxamide], the DC50 under setting [2] was < 2.5 nM. The Dmax under setting [1] was > 75%.

Regarding `Cc1ncsc1-c1cnc([C@H](C)NC(=O)[C@@H]2C[C@@H](O)CN2C(=O)[C@@H](c2cc(N3CCC(CN4CCC(O[C@H]5C[C@H](Oc6cc(N7C8CCC7CN(c7cc(-c9ccccc9O)nnc7N)C8)ccn6)C5)CC4)CC3)no2)C(C)C)cn1` [compound 590, (2S,4R)-1-((2R)-2-(3-(4-((4-((1r,3r)-3-((4-(3-(3-amino-6-(2-hydroxyphenyl)pyridazin-4-yl)-3,8-diazabicyclo[3.2.1]octan-8-yl)pyridin-2-yl)oxy)cyclobutoxy)piperidin-1-yl)methyl)piperidin-1-yl)isoxazol-5-yl)-3-methylbutanoyl)-4-hydroxy-N-((S)-1-(5-(4-methylthiazol-5-yl)pyrazin-2-yl)ethyl)pyrrolidine-2-carboxamide], under “BRM degradation, SW1573 cells, Table 2D, read-out: **Dmax (%) (% degraded)”, the greatest degradation seen (Dmax) is > 75%. In addition, under “BRM degradation, SW1573 cells, Table 2D, read-out: *DC50”, the DC50 was < 2.5 nM.

For the molecule `Cc1ncsc1-c1ccc([C@H](C)NC(=O)[C@@H]2C[C@@H](O)CN2C(=O)C(C(C)C)n2cc(OCCN3CCN(CCOc4cc(N5C6CCC5CN(c5cc(-c7ccccc7O)nnc5N)C6)ccn4)CC3)cn2)cc1` (stereo in doubt) [compound 38, (2S,4R)-1-[(2R)-2-[4-[2-(4-[2-[(4-[3-[3-amino-6-(2-hydroxyphenyl)pyridazin-4-yl]-3,8-diazabicyclo[3.2.1]octan-8-yl]pyridin-2-yl)oxy]ethyl]piperazin-1-yl)ethoxy]-1H-pyrazol-1-yl]-3-methylbutanoyl]-4-hydroxy-N-[(1S)-1-[4-(4-methyl-1,3-thiazol-5-yl)phenyl]ethyl]pyrrolidine-2-carboxamide], the 50% degradation concentration (DC50) under setting [3] fell in the range of 10 to 30 nM. For the same molecule, the maximal degradation (Dmax) under setting [4] is > 75%.

Turning to `Cc1ncsc1-c1ccc([C@H](C)NC(=O)[C@@H]2C[C@@H](O)CN2C(=O)[C@H](c2cc(OCCOCCOCCCCN3CC4(CCN(c5cc(-c6ccccc6O)nnc5N)CC4)C3)no2)C(C)C)cc1` [compound 71, (2S,4R)-1-((S)-2-(3-(2-(2-(4-(7-(3-amino-6-(2-hydroxyphenyl)pyridazin-4-yl)-2,7-diazaspiro[3.5]nonan-2-yl)butoxy)ethoxy)ethoxy)isoxazol-5-yl)-3-methylbutanoyl)-4-hydroxy-N-((S)-1-(4-(4-methylthiazol-5-yl)phenyl)ethyl)pyrrolidine-2-carboxamide], the DC50 under setting [3] is > 30 nM.

For `Cc1ncsc1-c1ccc(CNC(=O)[C@@H]2C[C@@H](O)CN2C(=O)[C@@H](c2cc(OCCOCCOCCn3cc(-c4cc(-c5ccccc5O)nnc4N)cn3)no2)C(C)C)cc1` [compound 15, (2S,4R)-1-[(2R)-2-(3-[2-[2-(2-[4-[3-amino-6-(2-hydroxyphenyl)pyridazin-4-yl]-1H-pyrazol-1-yl]ethoxy)ethoxy]ethoxy]-1,2-oxazol-5-yl)-3-methylbutanoyl]-4-hydroxy-N-[[4-(4-methyl-1,3-thiazol-5-yl)phenyl]methyl]pyrrolidine-2-carboxamide], the DC50 under setting [3] fell in the range of 10 to 30 nM. Besides, the Dmax under setting [4] was > 75%.

In the case of `Cc1ncoc1-c1ccc([C@H](C)NC(=O)[C@@H]2C[C@@H](O)CN2C(=O)[C@@H](c2cc(OCCN3CCC(O[C@H]4C[C@H](Oc5cc(N6C7CCC6CN(c6cc(-c8ccccc8O)nnc6N)C7)ccn5)C4)CC3)no2)C(C)C)cc1` [compound 213, (2S,4R)-1-((2R)-2-(3-(2-(4-((1r,3R)-3-((4-(3-(3-amino-6-(2-hydroxyphenyl)pyridazin-4-yl)-3,8-diazabicyclo[3.2.1]octan-8-yl)pyridin-2-yl)oxy)cyclobutoxy)piperidin-1-yl)ethoxy)isoxazol-5-yl)-3-methylbutanoyl)-4-hydroxy-N-((S)-1-(4-(4-methyloxazol-5-yl)phenyl)ethyl)pyrrolidine-2-carboxamide], the 50% degradation concentration (DC50) under setting [3] is < 2.5 nM. Also, the greatest degradation seen (Dmax) under setting [5] was > 75%.

Take `Cc1ncsc1-c1ccc([C@H](C)NC(=O)[C@@H]2C[C@@H](O)CN2C(=O)[C@@H](c2cc(O[C@H]3C[C@H](CN4CCC(O[C@H]5C[C@H](Oc6cc(N7C8CCC7CN(c7cc(-c9ccccc9O)nnc7N)C8)ccn6)C5)CC4)C3)no2)C(C)C)cc1` [compound 242, (2S,4R)-1-((2R)-2-(3-((1R,3R)-3-((4-((1r,3R)-3-((4-(3-(3-amino-6-(2-hydroxyphenyl)pyridazin-4-yl)-3,8-diazabicyclo[3.2.1]octan-8-yl)pyridin-2-yl)oxy)cyclobutoxy)piperidin-1-yl)methyl)cyclobutoxy)isoxazol-5-yl)-3-methylbutanoyl)-4-hydroxy-N-((S)-1-(4-(4-methylthiazol-5-yl)phenyl)ethyl)pyrrolidine-2-carboxamide]: the DC50 under setting [3] was < 2.5 nM. For the same molecule, the greatest degradation seen (Dmax) under setting [5] was > 75%.

Turning to `Cc1ncsc1-c1ccc(CNC(=O)[C@@H]2C[C@@H](O)CN2C(=O)[C@H](c2cc(OCC#Cc3ccc(O[C@H]4C[C@H](Oc5cc(N6C7CCC6CN(c6cc(-c8ccccc8O)nnc6N)C7)ccn5)C4)cn3)no2)C(C)C)cc1` [compound 220, (2S,4R)-1-((2S)-2-(3-((3-(5-((1r,3S)-3-((4-(3-(3-amino-6-(2-hydroxyphenyl)pyridazin-4-yl)-3,8-diazabicyclo[3.2.1]octan-8-yl)pyridin-2-yl)oxy)cyclobutoxy)pyridin-2-yl)prop-2-yn-1-yl)oxy)isoxazol-5-yl)-3-methylbutanoyl)-4-hydroxy-N-(4-(4-methylthiazol-5-yl)benzyl)pyrrolidine-2-carboxamide], under setting [3], the DC50 was 10 to 30 nM. The Dmax under setting [5] is > 75%.

Turning to `Cc1ncsc1-c1ccc([C@H](C)NC(=O)[C@@H]2C[C@@H](O)CN2C(=O)[C@@H](c2cc(N3CCN(CC#Cc4ncc(O[C@H]5C[C@H](Oc6cc(N7C8CCC7CN(c7cc(-c9ccccc9O)nnc7N)C8)ccn6)C5)cn4)CC3)no2)C(C)C)cc1` [compound 522, (2S,4R)-1-((2R)-2-(3-(4-(3-(5-((1r,3r)-3-((4-(3-(3-amino-6-(2-hydroxyphenyl)pyridazin-4-yl)-3,8-diazabicyclo[3.2.1]octan-8-yl)pyridin-2-yl)oxy)cyclobutoxy)pyrimidin-2-yl)prop-2-yn-1-yl)piperazin-1-yl)isoxazol-5-yl)-3-methylbutanoyl)-4-hydroxy-N-((S)-1-(4-(4-methylthiazol-5-yl)phenyl)ethyl)pyrrolidine-2-carboxamide], the DC50 under setting [2] is < 2.5 nM. Under setting [1], the greatest degradation seen (Dmax) was > 75%.

For `CC(C)[C@@H](C(=O)N1C[C@H](O)C[C@H]1C(=O)N[C@@H](C)c1ccc(C#N)cc1)c1cc(OCCN2CCC(O[C@H]3C[C@H](Oc4cc(N5C6CCC5CN(c5cc(-c7ccccc7O)nnc5N)C6)ccn4)C3)CC2)no1` [compound 203, (2S,4R)-1-((2R)-2-(3-(2-(4-((1r,3R)-3-((4-(3-(3-amino-6-(2-hydroxyphenyl)pyridazin-4-yl)-3,8-diazabicyclo[3.2.1]octan-8-yl)pyridin-2-yl)oxy)cyclobutoxy)piperidin-1-yl)ethoxy)isoxazol-5-yl)-3-methylbutanoyl)-N-((S)-1-(4-cyanophenyl)ethyl)-4-hydroxypyrrolidine-2-carboxamide], under setting [3], the half-maximal degradation concentration (DC50) was < 2.5 nM. Moreover, the greatest degradation seen (Dmax) under setting [5] was > 75%.

Consider `Cc1ncsc1-c1ccc([C@H](C)NC(=O)[C@@H]2C[C@@H](O)CN2C(=O)[C@@H](c2cc(OCCN3CCC(O[C@H]4C[C@H](Oc5cc(N6C7CCC6CN(c6cc(-c8ccccc8O)nnc6N)C7)ccn5)C4)CC3)no2)C(C)C)cn1` [compound 180, (2S,4R)-1-((2R)-2-(3-(2-(4-((1r,3R)-3-((4-(3-(3-amino-6-(2-hydroxyphenyl)pyridazin-4-yl)-3,8-diazabicyclo[3.2.1]octan-8-yl)pyridin-2-yl)oxy)cyclobutoxy)piperidin-1-yl)ethoxy)isoxazol-5-yl)-3-methylbutanoyl)-4-hydroxy-N-((S)-1-(6-(4-methylthiazol-5-yl)pyridin-3-yl)ethyl)pyrrolidine-2-carboxamide], for which the DC50 under setting [3] was < 2.5 nM. Also, the Dmax under setting [5] was > 75%.
